In patent US10507215B2, “Compounds for the treatment of addiction” (Amygdala Neurosciences, Inc., priority 2011, dated 2019):

Columns and labels:
Format in all cases: in vivo
Male SD rats [1] = experiment: Rat nicotine self administration, acute treatment
Description: Male SD rats were trained to self administer i.v. nicotine (0.03 mg/kg/inj) daily (Monday to Friday) in standard operant chambers with retractable levers (MED Associates, Inc) as previously published (Levin et al., 2003; Levin et al., 2007). During the daily 45 min session, rats received 0.05 ml infusion of 0.03 mg/kg/infusion of nicotine every time the active lever was pressed. A cue light and tone turned on for 0.5 sec together with the activation of a pump that delivered the nicotine solution. Daily sessions were run for at least 10 days before the initiation of drug testing. Solutions of compounds of Example 2 and Example 5 were prepared fresh daily in Formulation 2B: 25% PEG400/5% Vit E TPGS/1% SLS/69% water with 0.5% Methocel) for oral dosing. Compound of Example 2 doses were administered in a counterbalanced design for testing 1 hr before each nicotine session. Every rat received all drug doses and vehicle in a randomly assigned order. The oral drug administrations were made twice per week.
Compound of Example 5 was tested in a study using 4 independent groups. Each group received either oral vehicle or 1 of the 3 doses of compound of Example 5 (5, 10 or 30 mg-eq/kg). […] The 5 mg/kg dose was ineffective.

Male SD rats [2] = experiment: Rat nicotine self administration, 7-day chronic treatment; details: 7 consecutive days
Description: Upon completion of the acute compound of Example 5 treatment study, the same animals were used to test the effect of 7-day chronic oral administration of compound of Example 5 in the nicotine self administration model. Rats were treated orally with compound of Example 5 (5, 10 or 30 mg-eq/kg) or vehicle 1 hr before nicotine self administration session for 7 consecutive days. […] Similar to the acute treatment, the 5 mg-eq/kg dose was ineffective (FIG. 7). […] Animals in nicotine self administration studies had to reach pre defined criteria (e.g. rat strain, minimum number of nicotine infusions, consistent baseline nicotine self administration throughout the study, patent iv catheters, etc.) to be included in analysis.

[3] = tested on: male Sprague Dawley (SD) rats; experiment: Rat cocaine cue reinstatement; details: for inhibition of cocaine cue reinstatement vs vehicle: 1 hr before session
Description: Training of male Sprague Dawley (SD) rats had 3 separate stages. First, during self administration, animals were trained to lever press for cocaine with presentation of concomitant cues associated with drug delivery. Rats that reached criteria for addiction were included in the study. Afterward, during cue extinction, cocaine-cue dependent behavior was extinguished. Lastly, during cocaine cue reinstatement, the effect of compounds was tested on lever presses upon cue presentation (FIG. 2).
Rats were trained to self administer i.v. cocaine (0.35 mg/kg/injection) daily (Monday to Friday) in standard operant chambers with retractable levers (Coulbourn Instruments, PA). During the daily 2 hr session, rats received a 0.05 ml infusion of 0.35 mg/kg cocaine every time the active lever was pressed. A cue light and tone turned on for 2 sec together with activation of a pump that delivered the cocaine solution. Rats were required to maintain an infusion rate of ≥20+ per day for at least 10 days before being moved to extinction training.
During extinction sessions lever presses no longer produced cocaine infusion and cue light/tone presentation was absent. Rats received a maximum of 15 extinction sessions.
On the next day after reaching extinction criteria, rats were treated orally with vehicle (Formulation 2B: 25% PEG400/5% Vit E TPGS/1% SLS/69% water with 0.5% Methocel) or drug (compound of Example 2 or compound of Example 5) before the cue reinstatement session. Cue reinstatement began with a tone and cue light. This 2 hr session was identical to the self-administration session (cue light and tone present upon active lever press) except that no cocaine was delivered. The number of active lever presses was compared to extinction lever responding. This is considered a measure of reinstatement. The next day, rats were returned to extinction sessions for at least 2 or 3 more sessions. Rats then received a second and last reinstatement session with an opposite treatment to the one received on the first reinstatement session (vehicle or drug treatment). […] The light/tone presentation triggers this response and it is interpreted as a measure of reinstatement even though cocaine is not available.

Row | Structure (SMILES) | effect on number of nicotine infusions (Male SD rats [1]; 1 mg/kg oral) | effect on number of nicotine infusions (Male SD rats [1]; 5 mg/kg oral) | effect on number of nicotine infusions (Male SD rats [2]; 5 mg-eq/kg oral) | inhibition of number of nicotine infusions vs vehicle (Male SD rats [2]; 10 mg-eq/kg oral) | inhibition of number of nicotine infusions vs vehicle (Male SD rats [2]; 30 mg-eq/kg oral) | effect on number of nicotine infusions (Male SD rats [1]; 5 mg/kg dose oral, independent groups) | inhibition of number of nicotine infusions vs vehicle (Male SD rats [1]; 10 mg-eq/kg oral, independent groups) | inhibition of number of nicotine infusions vs vehicle (Male SD rats [1]; 30 mg-eq/kg oral, independent groups) | effect on cocaine cue reinstatement ([3]; 2.5 mg-eq/kg oral, lowest dose tested) | inhibition of cocaine cue reinstatement vs vehicle ([3]; 2.5 mg/kg eq oral, N.S.) | inhibition of cocaine cue reinstatement vs vehicle ([3]; 5 mg-eq/kg oral) | inhibition of cocaine cue reinstatement vs vehicle ([3]; 10 mg-eq/kg oral) | inhibition of cocaine cue reinstatement vs vehicle ([3]; 30 mg-eq/kg oral)
1 | O=C(NCc1ccc(-c2cc[nH]c(=O)c2)cc1)c1c(Cl)cccc1Cl [Compound 2, 2,6-dichloro-N-[4-(2-oxo-1,2-dihydro-pyridin-4-yl)-benzyl]-benzamide] | without effect | without effect |  |  |  |  |  |  |  |  |  |  | 
2 | O=C(NCc1ccc(-c2ccn(COP(=O)(O)O)c(=O)c2)cc1)c1c(Cl)cccc1Cl [Compound 14, phosphoric acid mono-(4-{4-[(2,6-dichloro-benzoylamino)-methyl]-phenyl}-2-oxo-2H-pyridin-1-ylmethyl) ester] |  |  | ineffective | 48% | 62% | ineffective | 51% | 68% | not significantly different from vehicle | 30% | 59% | 55% | 50%
